Experimental findings from the Deep4Chem optical property database are described below.

This data set is described as follows: solvent given as SMILES.

As for `CSc1ccc(/C=C/c2cnc3ccccc3n2)cc1`, the absorption maximum was 376 nm (in C1CCOC1); 377 nm (in CC#N); 373 nm (in CCCCCCC); 383 nm (in CS(C)=O); 381 nm (in ClCCl).

In the case of `COC1=[N+]2C(=C(c3ccccc3)c3ccc(OC)n3[B-]2(F)F)C=C1SC#N`, the absorption maximum is 504 nm (in CC#N); 514 nm (in CCCCCC); 506 nm (in CCOC(C)=O); 497 nm (in CO); 515 nm (in ClCCl).

For `CC(C)(C)NC(=O)c1ccc(C(=O)NC(C)(C)C)c2c1c1c3ccccc3c3ccccc3c1c1c3ccccc3c3ccccc3c21`, under “in ClCCl”, the absorption maximum was 388 nm.

As to `COc1cc(-c2nc3sc4ccccc4c3s2)cc(OC)c1OC`, under “in CS(C)=O”, the absorption maximum is on record as 358 nm.

Regarding `CCN(CC)c1ccc2cc(-c3nc4ccccc4n3-c3ccccc3)c(=O)oc2c1`, the absorption maximum (in ClCCl) was determined as 410 nm.

Consider `COc1cc2c(cc1OC)C1=C[C@H](c3ccccc3)C3(C(C#N)=C(C#N)N1CC2)c1cc(Br)ccc1-c1ccc(Br)cc13`, for which the absorption maximum (in ClCCl) is 311 nm.

`F[B-]1(F)n2cccc2C(c2ccccc2)=C2C=CC(c3cccc(OC4=[N+]5C(=C(c6ccccc6)c6cc(Br)c(Br)n6[B-]5(F)F)C=C4Br)c3)=[N+]21`: the absorption maximum (in ClC(Cl)Cl) is 556 nm.

In the case of `CSc1cc(-c2cc3cc4c5c(c3oc2=O)CCCN5CCC4)oc(=O)c1C#N`, the absorption maximum (in C1CCOC1) is 532 nm; the absorption maximum (in CC#N) was found to be 537 nm; the absorption maximum (in CC(C)=O) came to 536 nm; the absorption maximum (in CCOC(C)=O) is listed as 527 nm; the absorption maximum (in CN(C)C=O) stood at 545 nm; the absorption maximum (in CO) amounted to 537 nm. In addition, the absorption maximum turned out to be 549 nm (in CS(C)=O), 527 nm (in Cc1ccccc1), 538 nm (in ClC(Cl)Cl) and 541 nm (in ClCCl).

`CC[B-]1(CC)c2cccc3c4c5c(cccc5c(c23)-c2cccc(C)[n+]21)[B-](CC)(CC)[n+]1c(C)cccc1-4` gave an absorption maximum (in ClCCl) of 538 nm.

Regarding `N#C/C(=C(/C#N)c1ccc(-c2ccncc2)cc1)c1ccc(-c2ccncc2)cc1`, the absorption maximum (in ClCCl) worked out at 343 nm.

Where the note is “in ClC(Cl)Cl”, `CCCCCCc1cc(-c2ccc3c(c2)C2CCCC2N3c2ccc3c(c2)C(C)(C)c2ccccc2-3)sc1/C=C1\C(=O)c2ccc(C(=O)O)cc2C1=O` (stereo not given) registered an absorption maximum of 611 nm.

As for `COc1ccc(/C=C/c2nc3c4ccccc4c4ccccc4c3o2)cc1`, for the setting “in CC#N”, the absorption maximum came out at 368 nm.

`COc1cccc(-c2nc3c([nH]2)C2=CC(=O)S[C@]2(C)[C@@]2(C)SC(=O)C=C32)c1OC` gave an absorption maximum (in CC#N) of 397 nm.

For the setting “in Cc1ccccc1”, `c1ccc(-c2nnc(-c3ccc(-n4c5ccccc5c5ccccc54)cc3)o2)cc1` yielded an absorption maximum of 340 nm.

In the case of `CCN(CC)c1ccc2c(c1)oc(=O)c1c(=O)oc3cc(Br)ccc3c12`, the absorption maximum is 469 nm (in CS(C)=O) and 466 nm (in ClCCl).

On to `COc1cccc(-c2[nH]c(=O)n3c2-c2ccccc2C3=O)c1O`, for which the absorption maximum (in CC#N) was 393 nm, the absorption maximum (in CO) came out at 395 nm and the absorption maximum (in ClCCl) was 396 nm.

For the compound `COc1ccc(/C=C/c2cc(/C=C/c3ccc(OC)cc3)nc(/C=C/c3ccc(N(c4ccccc4)c4ccccc4)cc3)n2)cc1`, the absorption maximum (in ClCCl) stood at 376 nm.

On to `COc1cc2c(cc1OC)C1=C[C@H](c3ccc(C)cc3)C3(C(C#N)=C(C#N)N1CC2)c1cc(Cl)ccc1-c1ccc(Cl)cc13`, for which, for the setting “in ClCCl”, the absorption maximum was 315 nm.

With `OC1(c2ccc(-c3cccs3)s2)CCCCC1`, the absorption maximum is 312 nm (in C1CCOC1); 309 nm (in CC#N); 308 nm (in CCCCCC); 309 nm (in CCO); 317 nm (in OCCOCCO); 315 nm (in c1ccncc1).

`C(#Cc1c(C#Cc2cccs2)c(C#Cc2cccs2)c(C#Cc2cccs2)c(C#Cc2cccs2)c1C#Cc1cccs1)c1cccs1` displayed an absorption maximum (in ClCCl) of 371 nm.
